Reference: US4267192A, “Method for treating inflammation” (priority 1980, dated 1981)
Read-outs that look alike come from different tables or passages of the source.

How the values were obtained:
[1] = tested on: carrageenan-induced edema in the hind paw of normal and adrenalectomized rats; assay: carrageenan paw edema in normal and adrenalectomized rats; format: in vivo, rat
Procedure: (§1) Vehicle alone is administered as a control. Sixty minutes after drug administration edema is induced by an injection of 0.1 ml. of a 1% carrageenan solution is saline into the subplantar tissue of the rat's right hind paw. Two minutes later, paw volume is measured volumetrically with a plethysmograph and again 3 hours later. The mean volume of swelling for the control group is calculated and compared to the test groups. Percent change in paw edema is calculated and analyzed statistically (unpaired, Student's t-test).
Normal rats received the same doses as adrenalectomized rats.

[2] = tested on: carrageenan-induced edema in the hind paw of the rat; assay: rat carrageenan edema test (hind paw); format: in vivo, rat (male Sprague-Dawley); conditions: for Change in paw volume (ml) from 0-3 hr: mean ± S.E.; for % Change in paw edema: vs control
Procedure: as §1

[3] = tested on: polyarthritis induced by Mycobacterium butyricum or tuberculosis in rats; conditions: for Increase in Left Paw Volume (ml.) 0-16 days / Increase in Right Paw Volume (ml.) 0-4 days: mean ± S.E.
Procedure: (§2) Polyarthritis is induced in groups of 6-10 Sprague-Dawley rats weighing between 180-220 g. by a subcutaneous injection into the right paw of dessicated Mycobacterium butyricum or tuberculosis (0.5 mg/0.1 ml.) suspended in light mineral oil. […] Both hind paw volumes (ml.) are measured by mercury plethysmograph on day 0 or at the time of injection of the complete adjuvant. Increases in paw volume (viz. edema) are determined for both paws on days 4 and 16. The change in body weight from day 0 to day 16 is also calculated. Statistical analysis of differences in paw edemas and body weight is performed by using the unpaired. Student's t-test.

[4] = tested on: established adjuvant arthritis in rats; assay: established adjuvant arthritis, dosing on days 16, 17 and 18; conditions: rat
Procedure: as §2
The changes in left paw edema are measured at the end of 19 days, 23 days and 30 days.

[5] = Adrenalectomized Rats, oral 100 mg/kg
[6] = Adrenalectomized Rats, oral 200 mg/kg
[7] = oral 100 mg/kg, Table 1 group a
[8] = oral 180 mg/kg, Table 1 group c
[9] = oral 180 mg/kg, Table 1 group e
[10] = rat, oral 3.0 mg/kg daily, Table 3 group a
[11] = rat, oral 5.0 mg/kg daily, Table 3 group b
[12] = rat, oral 10.0 mg/kg daily, Table 3 group a
[13] = rat, oral 10.0 mg/kg daily, Table 3 group b
[14] = rat, oral 25.0 mg/kg daily, Table 3 group b
[15] = rat, oral 30.0 mg/kg daily, Table 3 group a
[16] = rat, oral 100.0 mg/kg daily, Table 3 group a
[17] = rat, oral 300.0 mg/kg daily, Table 3 group a

In the case of O=C(O)C=C1c2ccccc2C=Cc2ccccc21 [DCHA], the “% Inhibition” value [1, 5] is reported as 37%, the “Edema (ml) ± S.E.” value [1, 5] is reported as 0.57 ± .02 mL and the “% Inhibition” value [1, 6] is reported as 41%. For the same molecule, the “Edema (ml) ± S.E.” value [1, 6] was 0.81 ± .04 mL, the “% Inhibition” value ([1]; Normal Rats, oral 100 mg/kg) was 38% and the “Mean Edema (ml) ± S.E.” value ([1]; Normal Rats, oral 100 mg/kg) was 0.58 ± .04 mL. The “% Inhibition” value ([1]; Normal Rats, oral 200 mg/kg) was 44%, the “Mean Edema (ml) ± S.E.” value ([1]; Normal Rats, oral 200 mg/kg) was 0.53 ± .05 mL and the “action by stimulating naturally occurring steroids” value ([1]; in words) was “independent of the adrenal glands”. The “anti-inflammatory activity in adrenalectomized rats compared with normal control animals” value ([1]; oral 100 and 200 mg/kg) was “not different from that observed in normal control animals”, the “estimated ED50 (carrageenan paw edema)” value ([2]; oral) was about 80 mg/kg and the “oral doses that inhibit carrageenan paw edema” value ([2]; oral) was 10 to 180 mg/kg. For the same molecule, the “Change in paw volume (ml) from 0-3 hr” value ([2]; oral 3 mg/kg, Table 1 group a) was 0.63 ± 0.10 mL, the “% Change in paw edema” value ([2]; oral 3 mg/kg, Table 1 group a) was -18% and the “Change in paw volume (ml) from 0-3 hr” value ([2]; oral 10 mg/kg, Table 1 group a) was 0.61 ± 0.05 mL. For the same molecule, the “% Change in paw edema” value ([2]; oral 10 mg/kg, Table 1 group a) was -21%, the “Change in paw volume (ml) from 0-3 hr” value ([2]; oral 10 mg/kg, Table 1 group b) was 0.53 ± 0.10 mL and the “% Change in paw edema” value ([2]; oral 10 mg/kg, Table 1 group b) was -48%. The “Change in paw volume (ml) from 0-3 hr” value ([2]; oral 20 mg/kg, Table 1 group c) was 0.84 ± 0.10 mL, the “% Change in paw edema” value ([2]; oral 20 mg/kg, Table 1 group c) was -16% and the “Change in paw volume (ml) from 0-3 hr” value ([2]; oral 20 mg/kg, Table 1 group e) was 1.08 ± 0.05 mL. The “% Change in paw edema” value ([2]; oral 20 mg/kg, Table 1 group e) was -6%, the “Change in paw volume (ml) from 0-3 hr” value ([2]; oral 30 mg/kg, Table 1 group a) was 0.48 ± 0.06 mL and the “% Change in paw edema” value ([2]; oral 30 mg/kg, Table 1 group a) was -38%. The “Change in paw volume (ml) from 0-3 hr” value ([2]; oral 30 mg/kg, Table 1 group b) was 0.58 ± 0.08 mL, the “% Change in paw edema” value ([2]; oral 30 mg/kg, Table 1 group b) was -43% and the “Change in paw volume (ml) from 0-3 hr” value ([2]; oral 60 mg/kg, Table 1 group c) was 0.47 ± 0.08 mL. For the same molecule, the “% Change in paw edema” value ([2]; oral 60 mg/kg, Table 1 group c) was -53%, the “Change in paw volume (ml) from 0-3 hr” value ([2]; oral 60 mg/kg, Table 1 group e) was 0.82 ± 0.13 mL and the “% Change in paw edema” value ([2]; oral 60 mg/kg, Table 1 group e) was -29%. For the same molecule, the “Change in paw volume (ml) from 0-3 hr” value ([2]; oral 90 mg/kg, Table 1 group b) was 0.44 ± 0.03 mL, the “% Change in paw edema” value ([2]; oral 90 mg/kg, Table 1 group b) was -57% and the “Change in paw volume (ml) from 0-3 hr” value [2, 7] was 0.44 ± 0.07 mL. The “% Change in paw edema” value [2, 7] was -43%, the “Change in paw volume (ml) from 0-3 hr” value [2, 8] was 0.49 ± 0.06 mL and the “% Change in paw edema” value [2, 8] was -51%. The “Change in paw volume (ml) from 0-3 hr” value [2, 9] was 0.62 ± 0.04 mL, the “% Change in paw edema” value [2, 9] was -46% and the “potency relative to aspirin” value ([3]; chronic inflammatory disease mediated mainly through immunological mechanisms, in words) was “several times more potent than aspirin”. The “toxicity at high doses” value ([3]; in words) was “no apparent toxicity at high doses”, the “% Change of Left Paw Edema at Day 16” value [3, 10] was -45% and the “% Change of Right Paw Edema at Day 4” value [3, 10] was -15%. The “Change In Body Weight (mean ± S.E.) 0-16 days” value (“Change In Body Weight” below) [3, 10] was 22.5 ± 9.6, the “Increase in Left Paw Volume (ml.) 0-16 days” value (“Increase in Left Paw Volume” below) [3, 10] was 0.43 ± .09 mL and the “Increase in Right Paw Volume (ml.) 0-4 days” value (from here on “Increase in Right Paw Volume”) [3, 10] was 1.33 ± .11 mL. For the same molecule, the “% Change of Left Paw Edema at Day 16” value [3, 11] was -5.4%, the “% Change of Right Paw Edema at Day 4” value [3, 11] was -30% and the “Change In Body Weight” value [3, 11] was 19.5 ± 5.8. For the same molecule, the “Increase in Left Paw Volume” value [3, 11] was 0.70 ± .05 mL, the “Increase in Right Paw Volume” value [3, 11] was 1.30 ± .08 mL and the “% Change of Left Paw Edema at Day 16” value [3, 12] was -47%. The “% Change of Right Paw Edema at Day 4” value [3, 12] was -55%, the “Change In Body Weight” value [3, 12] was 25.6 ± 8.0 and the “Increase in Left Paw Volume” value [3, 12] was 0.41 ± .04 mL. For the same molecule, the “Increase in Right Paw Volume” value [3, 12] was 0.70 ± .06 mL, the “% Change of Left Paw Edema at Day 16” value [3, 13] was -55% and the “% Change of Right Paw Edema at Day 4” value [3, 13] was -39%. The “Change In Body Weight” value [3, 13] was 33.3 ± 5.5, the “Increase in Left Paw Volume” value [3, 13] was 0.33 ± .06 mL and the “Increase in Right Paw Volume” value [3, 13] was 1.14 ± .04 mL. The “% Change of Left Paw Edema at Day 16” value [3, 14] was -47%, the “% Change of Right Paw Edema at Day 4” value [3, 14] was -47% and the “Change In Body Weight” value [3, 14] was 30.3 ± 5.7. The “Increase in Left Paw Volume” value [3, 14] was 0.39 ± .04 mL, the “Increase in Right Paw Volume” value [3, 14] was 1.00 ± .05 mL and the “% Change of Left Paw Edema at Day 16” value [3, 15] was -62%. The “% Change of Right Paw Edema at Day 4” value [3, 15] was -58%, the “Change In Body Weight” value [3, 15] was 45.8 ± 5.6 and the “Increase in Left Paw Volume” value [3, 15] was 0.30 ± .05 mL. For the same molecule, the “Increase in Right Paw Volume” value [3, 15] was 0.66 ± .06 mL, the weight gain ([3]; rat, oral 100 mg/kg) was 51 g and the “% Change of Left Paw Edema at Day 16” value [3, 16] was -60%. The “% Change of Right Paw Edema at Day 4” value [3, 16] was -53%, the “Change In Body Weight” value [3, 16] was 50.6 ± 5.4 and the “Increase in Left Paw Volume” value [3, 16] was 0.31 ± .05 mL. For the same molecule, the “Increase in Right Paw Volume” value [3, 16] was 0.74 ± .08 mL, the weight gain ([3]; rat, oral 300 mg/kg) was 58 g and the “% Change of Right Paw Edema at Day 4” value [3, 17] was -58%. The “Change In Body Weight” value [3, 17] was 58.2 ± 8.3, the “Increase in Left Paw Volume” value [3, 17] was 0.14 ± .06 mL and the “Increase in Right Paw Volume” value [3, 17] was 0.66 ± .05 mL. For the same molecule, the “toxic signs or loss of body weight” value ([3]; rat, oral 100 and 300 mg/kg) was “did not show any toxic signs or loss of body weight”, the “anti-inflammatory activity in the adjuvant arthritis test” value ([3]; rat, oral, daily) was “significant anti-inflammatory activity” and the “estimated ED50 (adjuvant arthritis test)” value ([3]; rat, oral, daily) was about 15 mg/kg. For the same molecule, the “active doses, right paw edema at 4 days (acute, non-specific inflammation)” value ([3]; rat, orally) was 10 to 300 mg/kg, the “effective doses, left paw edema (immunologically induced inflammation)” value ([3]; rat, orally) was 3-300 mg/kg and the “return to pretreatment or higher edema levels” value ([4]; end of 30 days, 12 days after last dosing) was “no significant return to pretreatment or even higher edema levels”. The “% Change from Control, left paw edema (day 0-19)” value (shortened to “% Change … (day 0-19)”) ([4]; oral 10 mg/kg, days 16, 17, 18) was -20%, the “% Change from Control, left paw edema (day 0-23)” value (“% Change … (day 0-23)” for short) ([4]; oral 10 mg/kg, days 16, 17, 18) was -15% and the “% Change from Control, left paw edema (day 0-30)” value (“% Change … (day 0-30)” below) ([4]; oral 10 mg/kg, days 16, 17, 18) was -21%. For the same molecule, the “Increase in left paw edema ml. (day 0-19)” value (shortened to “Increase … (day 0-19)”) ([4]; oral 10 mg/kg, days 16, 17, 18) was 0.78 ± 0.11 mL, the “Increase in left paw edema ml. (day 0-23)” value (shortened to “Increase … (day 0-23)”) ([4]; oral 10 mg/kg, days 16, 17, 18) was 0.82 ± 0.13 mL and the “Increase in left paw edema ml. (day 0-30)” value (shortened to “Increase … (day 0-30)”) ([4]; oral 10 mg/kg, days 16, 17, 18) was 1.20 ± 0.16 mL. The “% Change … (day 0-19)” value ([4]; oral 30 mg/kg, days 16, 17, 18) was -26%, the “% Change … (day 0-23)” value ([4]; oral 30 mg/kg, days 16, 17, 18) was -10% and the “% Change … (day 0-30)” value ([4]; oral 30 mg/kg, days 16, 17, 18) was -29%. For the same molecule, the “Increase … (day 0-19)” value ([4]; oral 30 mg/kg, days 16, 17, 18) was 0.75 ± 0.11 mL, the “Increase … (day 0-23)” value ([4]; oral 30 mg/kg, days 16, 17, 18) was 0.87 ± 0.16 mL and the “Increase … (day 0-30)” value ([4]; oral 30 mg/kg, days 16, 17, 18) was 1.07 ± 0.17 mL. The “% Change … (day 0-19)” value ([4]; oral 90 mg/kg, days 16, 17, 18) was -42%, the “% Change … (day 0-23)” value ([4]; oral 90 mg/kg, days 16, 17, 18) was -24% and the “% Change … (day 0-30)” value ([4]; oral 90 mg/kg, days 16, 17, 18) was -32%. For the same molecule, the “Increase … (day 0-19)” value ([4]; oral 90 mg/kg, days 16, 17, 18) was 0.59 ± 0.06 mL, the “Increase … (day 0-23)” value ([4]; oral 90 mg/kg, days 16, 17, 18) was 0.73 ± 0.10 mL and the “Increase … (day 0-30)” value ([4]; oral 90 mg/kg, days 16, 17, 18) was 1.03 ± 0.11 mL. The “effect on left paw edema of rats with established adjuvant arthritis” value ([4]; oral, days 16, 17, 18) was “significant decrease in the left paw edema”.
